Biological target: T1, human GPR119 (Homo sapiens, UniProt Q8TDV5)
T1 construct: expression vector for human GPR119 cDNA (Acc. No. NP_848566); expressed in transfected cells
T1 sequence (Q8TDV5 1-335): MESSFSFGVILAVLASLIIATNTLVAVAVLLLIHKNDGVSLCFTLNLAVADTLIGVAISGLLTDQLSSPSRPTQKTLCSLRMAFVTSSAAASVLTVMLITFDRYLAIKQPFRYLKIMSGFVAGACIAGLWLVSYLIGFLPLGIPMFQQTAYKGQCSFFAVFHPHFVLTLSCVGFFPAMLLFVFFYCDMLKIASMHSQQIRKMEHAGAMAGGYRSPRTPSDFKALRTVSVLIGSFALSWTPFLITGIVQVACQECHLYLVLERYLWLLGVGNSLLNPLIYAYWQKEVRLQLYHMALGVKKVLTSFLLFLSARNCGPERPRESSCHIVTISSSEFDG
Test: AlphaScreen cAMP assay in Min-6/hGPR119 cells (activation of GPR119, intracellular cAMP)
Type: cell-based
Conditions: MIN6 cells stably transfected with human GPR119; cAMP by AlphaScreen after 45 minutes incubation at room temperature
Outline: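 MIN6 cells stably expressing human GPR119, seeded 24 h before treatment; compounds applied 45 min at ~20 °C in Hepes-buffered saline pH 7.4 with 0.5 mM IBMX, 0.1% BSA, 1% DMSO final. Intracellular cAMP measured by AlphaScreen.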

Row | EC50 [nM] | SMILES
1 | 97 | CC(C)(C)OC(=O)N1CCC([C@H]2Cc3cc(-c4ccc(S(C)(=O)=O)cn4)ccc3O2)CC1 [Example 72, (R)-4-[5-(5-Methanesulfonyl-pyridin-2-yl)-2,3-dihydro-benzofuran-2-yl]-piperidine-1-carboxylic acid tert-butyl ester]
2 | 27 | CC(C)(C)OC(=O)N1CCC([C@@H]2Cc3nc(-c4ccc(S(C)(=O)=O)cc4)ncc3O2)CC1 [Example 73, (S)-4-[2-(4-Methanesulfonyl-phenyl)-6,7-dihydro-furo[3,2-d]pyrimidin-6-yl]-piperidine-1-carboxylic acid tert-butyl ester]
3 | 218 | CC(C)(C)OC(=O)N1CCC([C@H]2Cc3nc(-c4ccc(S(C)(=O)=O)cc4)ncc3O2)CC1 [Example 74, (R)-4-[2-(4-Methanesulfonyl-phenyl)-6,7-dihydro-furo[3,2-d]pyrimidin-6-yl]-piperidine-1-carboxylic acid tert-butyl ester]
4 | 14 | CC(C)(C)OC(=O)N1CCC(C2(C)Cc3cc(-c4ccc(S(C)(=O)=O)cc4)ncc3O2)CC1 (stereo not shown) [Example 77, 4-[5-(4-Methanesulfonyl-phenyl)-2-methyl-2,3-dihydro-furo[2,3-c]pyridin-2-yl]-piperidine-1-carboxylic acid tert-butyl ester]
5 | 15 | CC(C)(C)OC(=O)N1CCC(C2(C)Cc3cc(C4=CCN(S(C)(=O)=O)CC4)ncc3O2)CC1 (stereo not shown) [Example 78, 4-[5-(1-Methanesulfonyl-1,2,3,6-tetrahydro-pyridin-4-yl)-2-methyl-2,3-dihydro-furo[2,3-c]pyridin-2-yl]-piperidine-1-carboxylic acid tert-butyl ester]
6 | 40 | CC(C)(C)OC(=O)N1CCC(C2(C)Cc3cc(N4CCN(S(C)(=O)=O)CC4)ncc3O2)CC1 (stereo not shown) [Example 79, 4-[5-(4-Methanesulfonyl-piperazin-1-yl)-2-methyl-2,3-dihydro-furo[2,3-c]pyridin-2-yl]-piperidine-1-carboxylic acid tert-butyl ester]
7 | 24 | CC(C)(C)OC(=O)N1CCC(C2(C)Cc3cc(-c4ccc(CS(C)(=O)=O)cc4)ncc3O2)CC1 (stereo not shown) [Example 80, 4-[5-(4-Methanesulfonylmethyl-phenyl)-2-methyl-2,3-dihydro-furo[2,3-c]pyridin-2-yl]-piperidine-1-carboxylic acid tert-butyl ester]
8 | 53 | CC(C)(C)OC(=O)N1CCC(C2(C)Cc3cc(C4CCN(S(C)(=O)=O)CC4)ncc3O2)CC1 (stereo not shown) [Example 81, 4-[5-(1-Methanesulfonyl-piperidin-4-yl)-2-methyl-2,3-dihydro-furo[2,3-c]pyridin-2-yl]-piperidine-1-carboxylic acid tert-butyl ester]
9 | 21 | CC(C)(C)OC(=O)N1CCC(C2(C)Cc3cc(-c4ccc(CS(C)(=O)=O)cc4F)ncc3O2)CC1 (stereo not shown) [Example 82]
10 | 4 | CC(C)(C)OC(=O)N1CCC([C@]2(C)Cc3cc(-c4ccc(S(C)(=O)=O)cc4)ncc3O2)CC1 [Example 83, (S)-4-[5-(4-Methanesulfonyl-phenyl)-2-methyl-2,3-dihydro-furo[2,3-c]pyridin-2-yl]-piperidine-1-carboxylic acid tert-butyl ester]
11 | 172 | CC(C)(C)OC(=O)N1CCC([C@@]2(C)Cc3cc(-c4ccc(S(C)(=O)=O)cc4)ncc3O2)CC1 [Example 84, (R)-4-[5-(4-Methanesulfonyl-phenyl)-2-methyl-2,3-dihydro-furo[2,3-c]pyridin-2-yl]-piperidine-1-carboxylic acid tert-butyl ester]
12 | 7 | CC1(OC(=O)N2CCC([C@]3(C)Cc4cc(-c5ccc(S(C)(=O)=O)cc5)ncc4O3)CC2)CC1 [Example 85, (S)-4-[5-(4-Methanesulfonyl-phenyl)-2-methyl-2,3-dihydro-furo[2,3-c]pyridin-2-yl]-piperidine-1-carboxylic acid 1-methyl-cyclopropyl ester]
13 | 11 | CC(C)OC(=O)N1CCC([C@]2(C)Cc3cc(-c4ccc(S(C)(=O)=O)cc4)ncc3O2)CC1 [Example 86, (S)-4-[5-(4-Methanesulfonyl-phenyl)-2-methyl-2,3-dihydro-furo[2,3-c]pyridin-2-yl]-piperidine-1-carboxylic acid isopropyl ester]
14 | 13 | CC1(OC(=O)N2CCC([C@]3(C)Cc4cc(C5=CCN(S(C)(=O)=O)CC5)ncc4O3)CC2)CC1 [Example 88, (S)-4-[5-(1-Methanesulfonyl-1,2,3,6-tetrahydro-pyridin-4-yl)-2-methyl-2,3-dihydro-furo[2,3-c]pyridin-2-yl]-piperidine-1-carboxylic acid 1-methyl-cyclopropyl ester]
15 | 7 | CC(C)OC(=O)N1CCC([C@]2(C)Cc3cc(C4=CCN(S(C)(=O)=O)CC4)ncc3O2)CC1 [Example 89, (S)-4-[5-(1-Methanesulfonyl-1,2,3,6-tetrahydro-pyridin-4-yl)-2-methyl-2,3-dihydro-furo[2,3-c]pyridin-2-yl]-piperidine-1-carboxylic acid isopropyl ester]
16 | 19 | CC(C)(C)OC(=O)N1CCC(C2Cc3cc(N4CCN(S(C)(=O)=O)CC4)ncc3O2)CC1 (stereo not shown) [Example 90, 4-[5-(4-Methanesulfonyl-piperazin-1-yl)-2,3-dihydro-furo[2,3-c]pyridin-2-yl]-piperidine-1-carboxylic acid tert-butyl ester]
17 | 603 | CC(C)(C)OC(=O)N1CCC(C2Cc3nc(N4CCN(S(C)(=O)=O)CC4)ncc3O2)CC1 (stereo not shown) [Example 91, 4-[2-(4-Methanesulfonyl-piperazin-1-yl)-6,7-dihydro-furo[3,2-d]pyrimidin-6-yl]-piperidine-1-carboxylic acid tert-butyl ester]
18 | 12 | CC(C)(C)OC(=O)N1CCC(C2Cc3cc(C4=CCN(S(C)(=O)=O)CC4)ncc3O2)CC1 (stereo not shown) [Example 92, 4-[5-(1-Methanesulfonyl-1,2,3,6-tetrahydro-pyridin-4-yl)-2,3-dihydro-furo[2,3-c]pyridin-2-yl]-piperidine-1-carboxylic acid tert-butyl ester]
19 | 32 | CC(C)(C)OC(=O)N1CCC(C2Cc3cc(C4CCN(S(C)(=O)=O)CC4)ncc3O2)CC1 (stereo not shown) [Example 93, 4-[5-(1-Methanesulfonyl-piperidin-4-yl)-2,3-dihydro-furo[2,3-c]pyridin-2-yl]-piperidine-1-carboxylic acid tert-butyl ester]
20 | 7 | CC(C)(C)OC(=O)N1CCC(C2Cc3cc(C4=CCN(S(C)(=O)=O)CC4)ccc3O2)CC1 (stereo not shown) [Example 94, 4-[5-(1-Methanesulfonyl-1,2,3,6-tetrahydro-pyridin-4-yl)-2,3-dihydro-benzofuran-2-yl]-piperidine-1-carboxylic acid tert-butyl ester]
21 | 17 | CC(C)OC(=O)N1CCC(C2Cc3cc(C4=CCN(S(C)(=O)=O)CC4)ncc3O2)CC1 (stereo not shown) [Example 95, 4-[5-(1-Methanesulfonyl-1,2,3,6-tetrahydro-pyridin-4-yl)-2,3-dihydro-furo[2,3-c]pyridin-2-yl]-piperidine-1-carboxylic acid isopropyl ester]
22 | 15 | CS(=O)(=O)N1CC=C(c2cc3c(cn2)OC(C2CCN(C(=O)OC4CCC4)CC2)C3)CC1 (stereo not shown) [Example 96, 4-[5-(1-Methanesulfonyl-1,2,3,6-tetrahydro-pyridin-4-yl)-2,3-dihydro-furo[2,3-c]pyridin-2-yl]-piperidine-1-carboxylic acid cyclobutyl ester]

From patent US8669271B2 (Boehringer Ingelheim International GmbH, priority 2010, dated 2014)
